Columns and labels:
[1] = test system: Erysiphe graminis f. sp. tritici; assay: Test A: wheat powdery mildew, preventive spray on wheat seedlings; type: in vivo; details: Blumeria graminis, 192 h, wheat seedlings sprayed to run-off, inoculated next day, rated after 8 days, 100 = 100% disease control, 0 = no control, read-out: Percentage Disease Control Test A
Text: General protocol for preparing test suspensions for Tests A-G: the test compounds were first dissolved in acetone in an amount equal to 11% of the final volume and then suspended at the desired concentration (in ppm) in acetone and purified water (50/50 mix by volume) containing 250 ppm of the surfactant Trem® 014 (polyhydric alcohol esters). The resulting test suspensions were then used in Tests A-G. Spraying a 200 ppm test suspension to the point of run-off on the test plants was the equivalent of a rate of 800 g/ha. The test suspension was sprayed to the point of run-off on wheat seedlings. The following day the seedlings were inoculated with a spore dust of Erysiphe graminis f. sp. tritici, (the causal agent of wheat powdery mildew) and incubated in a growth chamber at 20° C. for 8 days, after which time disease ratings were visually made. Results for Tests A-G are given in Table A. In the Table, a rating of 100 indicates 100% disease control and a rating of 0 indicates no disease control (relative to the controls). A dash (-) indicates no test results. All results are for 200 ppm except where followed by an “*”, which indicates 40 ppm.

[2] = test system: Puccinia recondita f sp. tritici; assay: Test B: wheat leaf rust, preventive spray on wheat seedlings; type: in vivo; details: Puccinia recondita, 192 h, wheat seedlings sprayed to run-off, inoculated next day, rated after 24 h + 7 days, read-out: Percentage Disease Control Test B
Text: General protocol for preparing test suspensions for Tests A-G: the test compounds were first dissolved in acetone in an amount equal to 11% of the final volume and then suspended at the desired concentration (in ppm) in acetone and purified water (50/50 mix by volume) containing 250 ppm of the surfactant Trem® 014 (polyhydric alcohol esters). The resulting test suspensions were then used in Tests A-G. Spraying a 200 ppm test suspension to the point of run-off on the test plants was the equivalent of a rate of 800 g/ha. The test suspension was sprayed to the point of run-off on wheat seedlings. The following day the seedlings were inoculated with a spore suspension of Puccinia recondita f sp. tritici (the causal agent of wheat leaf rust) and incubated in a saturated atmosphere at 20° C. for 24 h, and then moved to a growth chamber at 20° C. for 7 days, after which time disease ratings were visually made. Results for Tests A-G are given in Table A. In the Table, a rating of 100 indicates 100% disease control and a rating of 0 indicates no disease control (relative to the controls). A dash (-) indicates no test results. All results are for 200 ppm except where followed by an “*”, which indicates 40 ppm.

Row | SMILES | pest or weed control at 200 ppm [1] [%] | pest or weed control at 200 ppm [2] [%] | melting point [°C]
1 | CC(=O)NCc1cc(-c2ccn(-c3ccc4c(c3)CCCO4)n2)ccc1Cl [Compound 2, N-[[2-chloro-5-[1-(3,4-dihydro-2H-1-benzopyran-6-yl)-1H-pyrazol-3-yl]-phenyl]methyl]acetamide] | 84 | 100 | –
2 | O=CNCc1cc(-c2ccn(-c3ccc4c(c3)CCCO4)n2)ccc1Cl [Compound 3, N-[[2-chloro-5-[1-(3,4-dihydro-2H-1-benzopyran-6-yl)-1H-pyrazol-3-yl]-phenyl]methyl]formamide] | 0 | 97 | –
3 | CNC(=O)NCc1cc(-c2ccn(-c3ccc4c(c3)CCCO4)n2)ccc1Cl [Compound 4, N-[[2-chloro-5-[1-(3,4-dihydro-2H-1-benzopyran-6-yl)-1H-pyrazol-3-yl]-phenyl]methyl]-N′-methylurea] | 0 | 97 | –
4 | COC(=O)NCc1cc(-n2ccc(-c3ccc4c(c3)CCCO4)n2)ccc1Cl [Compound 5, methyl N-[[2-chloro-5-[3-(3,4-dihydro-2H-1-benzopyran-6-yl)-1H-pyrazol-1-yl]phenyl]methyl]carbamate] | 100 | 100 | –
5 | COC(=O)NCc1cc(-n2ccc(-c3ccc4c(c3)OCO4)n2)ccc1Cl [Compound 6, methyl N-[[5-[3-(1,3-benzodioxol-5-yl)-1H-pyrazol-1-yl]-2-chlorophenyl]-methyl]carbamate] | 100 | 100 | –
6 | COC(=O)NCc1cc(-n2ccc(-c3ccc4c(c3)OCCO4)n2)ccc1Cl [Compound 7, methyl N-[[2-chloro-5-[3-(2,3-dihydro-1,4-benzodioxin-6-yl)-1H-pyrazol-1-yl]-phenyl]methyl]carbamate] | 100 | 100 | –
7 | CC(=O)NCc1cc(-n2ccc(-c3ccc4c(c3)CCCO4)n2)ccc1Cl [Compound 8, N-[[2-chloro-5-[3-(3,4-dihydro-2H-1-benzopyran-6-yl)-1H-pyrazol-1-yl]phenyl]methyl]acetamide] | 0 | 100 | –
8 | CNC(=O)NCc1cc(-n2ccc(-c3ccc4c(c3)CCCO4)n2)ccc1Cl [Compound 9, N-[[2-chloro-5-[3-(3,4-dihydro-2H-1-benzopyran-6-yl)-1H-pyrazol-1-yl]phenyl]methyl]-N′-methylurea] | 0 | 88 | –
9 | COC(=O)NCc1cc(-n2ccc(-c3ccc4c(c3)CCCO4)n2)ccc1F [Compound 11, methyl N-[[5-[3-(3,4-dihydro-2H-1-benzopyran-6-yl)-1H-pyrazol-1-yl]-2-fluorophenyl]methyl]carbamate] | 100 | 100 | 140 to 144
10 | COC(=O)NCc1cc(-c2ccn(-c3ccc4c(c3)CCCO4)n2)ccc1F [Compound 12, methyl N-[[5-[1-(3,4-dihydro-2H-1-benzopyran-6-yl)-1H-pyrazol-3-yl]-2-fluorophenyl]methyl]carbamate] | 100 | 100 | 134 to 138
11 | COC(=O)NCc1cc(-c2ccn(-c3ccc4c(c3)CCCO4)n2)ccc1C [Compound 20, methyl N-[[5-[1-(3,4-dihydro-2H-1-benzopyran-6-yl)-1H-pyrazol-3-yl]-2-methylphenyl]methyl]carbamate] | 99 | 100 | 161 to 162
12 | COC(=O)NCc1cc(-c2ccn(-c3ccc4c(c3)C=C(C(=O)OC)CO4)n2)ccc1Cl [Compound 23, methyl 6-[3-[4-chloro-3-[[(methoxycarbonyl)amino]methyl]phenyl]-1H-pyrazol-1-yl]-2H-1-benzopyran-3-carboxylate] | 0 | 94 | 185 to 187
13 | COC(=O)NCc1cc(-c2ccn(-c3ccc4c(c3)C=C(C(=O)O)CO4)n2)ccc1Cl [Compound 24, 6-[3-[4-chloro-3-[[(methoxycarbonyl)amino]methyl]phenyl]-1H-pyrazol-1-yl]-2H-1-benzopyran-3-carboxylic acid] | 0 | 96 | 245 to 247
14 | COC(=O)NCc1cc(-n2ccc(-c3ccc4c(c3)CCCO4)n2)ccc1C [Compound 25, methyl N-[[5-[3-(3,4-dihydro-2H-1-benzopyran-6-yl)-1H-pyrazol-1-yl]-2-methylphenyl]methyl]carbamate] | 100 | 100 | 152 to 154
15 | COC(=O)NCc1cc(-c2ccn(-c3ccc4c(c3)CC3(CO4)OCCO3)n2)ccc1Cl [Compound 28, methyl N-[[2-chloro-5-(1-spiro[2H-1-benzopyran-3(4H), 2′-[1,3]dioxolan]-6-yl-1H-pyrazol-3-yl)phenyl]methyl]carbamate] | 99 | 100 | 70 to 73
16 | COC(=O)NCc1cc(-c2ccn(-c3ccc4c(c3)CC(=O)CO4)n2)ccc1Cl [Compound 29, methyl N-[[2-chloro-5-[1-(3,4-dihydro-3-oxo-2H-1-benzopyran-6-yl)-1H-pyrazol-3-yl]phenyl]methyl]carbamate] | 72 | 99 | 104 to 106
17 | COC(=O)NCc1cc(-c2ccn(-c3ccc4c(c3)CC(O)CO4)n2)ccc1Cl (stereo not shown) [Compound 30, methyl N-[[2-chloro-5-[1-(3,4-dihydro-3-hydroxy-2H-1-benzopyran-6-yl)-1H-pyrazol-3-yl]phenyl]methyl]carbamate] | 98 | 100 | 136 to 138

— patent publication US8921360B2, “Heterobicycle-substituted azolyl benzene fungicides” (priority 2009, dated 2014)
